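Each compound was tested at five concentrations against cells in 96-well plates for 48 hours. At the TGI there is no net growth.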
Columns and labels:
Assay in all cases: NCI-60 cell line screen, 48 h
[1] = system: HOP-92 NSCLC
[2] = system: HS 578T breast
[3] = system: RXF 393 renal
[4] = system: SF-268 CNS
[5] = system: SR leukemia
[6] = system: T-47D breast
[7] = system: HOP-62 NSCLC
[8] = system: TK-10 renal
[9] = system: ACHN renal
[10] = system: NCI-H23 lung
[11] = system: CAKI-1 renal
[12] = system: SK-OV-3 ovarian
[13] = system: MDA-MB-435
[14] = system: HL-60(TB) leukemia
[15] = system: HCC-2998 colon

`CNC(=O)C1CCC(=O)N1CN(C(C)=O)c1ccccc1` (configuration not stated) gave a TGI [1] greater than 100 µM, a TGI [2] greater than 100 µM and a TGI [3] greater than 100 µM. For the same compound, the TGI [4] was greater than 100 µM, the TGI [5] was 84 µM and the TGI [6] was greater than 100 µM. For the same compound, the TGI [7] was greater than 100 µM, the TGI [8] was greater than 100 µM and the TGI [9] was greater than 100 µM. For the same compound, the TGI [10] was greater than 100 µM, the TGI [11] was greater than 100 µM and the TGI [12] was greater than 100 µM. For the same compound, the TGI [13] was greater than 100 µM.

For `CSC1=N/C(=C\c2ccccc2)C(=O)N1CN1CCOCC1`, the TGI [1] was greater than 100 µM, the TGI [2] was greater than 100 µM and the TGI [4] was greater than 100 µM. It also gave a TGI [5] greater than 100 µM, a TGI [7] greater than 100 µM and a TGI [8] greater than 100 µM. For the same compound, the TGI [9] was greater than 100 µM, the TGI [10] was greater than 100 µM and the TGI [14] was greater than 100 µM. For the same compound, the TGI [12] was greater than 100 µM and the TGI [13] was greater than 100 µM.

Compound `O=C1C=Cc2c1csc2Br` has a TGI [2] greater than 100 µM, a TGI [3] greater than 100 µM and a TGI [4] greater than 100 µM. The TGI [5] was 22.7 µM, the TGI [6] was greater than 100 µM and the TGI [7] was greater than 100 µM. The TGI [8] was greater than 100 µM, the TGI [9] was 86.5 µM and the TGI [10] was greater than 100 µM. The TGI [11] was greater than 100 µM, the TGI [12] was greater than 100 µM and the TGI [13] was greater than 100 µM.

`N#Cc1nc(-c2ccccc2O)oc1N` was tested, and the TGI [1] was greater than 100 µM, the TGI [2] was greater than 100 µM and the TGI [3] was greater than 100 µM. For the same compound, the TGI [4] was greater than 100 µM, the TGI [7] was greater than 100 µM and the TGI [8] was greater than 100 µM. It also gave a TGI [9] greater than 100 µM, a TGI [14] greater than 100 µM and a TGI [11] greater than 100 µM. It also gave a TGI [12] greater than 100 µM and a TGI [13] greater than 100 µM.

`CCn1c(SCC(=O)NNC(=S)Nc2ccc(Cl)cc2)nc2ccccc2c1=O` showed a TGI [2] greater than 100 µM, a TGI [3] greater than 100 µM and a TGI [4] greater than 100 µM. The TGI [5] was greater than 100 µM, the TGI [6] was 83 µM and the TGI [7] was greater than 100 µM. The TGI [8] was greater than 100 µM, the TGI [9] was greater than 100 µM and the TGI [10] was greater than 100 µM. For the same compound, the TGI [14] was 84.9 µM, the TGI [11] was greater than 100 µM and the TGI [15] was greater than 100 µM. It also gave a TGI [12] greater than 100 µM and a TGI [13] greater than 100 µM.

Compound `O=C1NC(=O)/C(=C/c2ccc(S(=O)(=O)N/N=C/c3ccccc3)cc2)N1` has a TGI [1] greater than 100 µM, a TGI [2] greater than 100 µM and a TGI [3] greater than 100 µM. For the same compound, the TGI [4] was greater than 100 µM, the TGI [6] was greater than 100 µM and the TGI [7] was greater than 100 µM. The TGI [8] was greater than 100 µM, the TGI [9] was greater than 100 µM and the TGI [10] was greater than 100 µM. It also gave a TGI [14] greater than 100 µM, a TGI [11] greater than 100 µM and a TGI [15] greater than 100 µM. For the same compound, the TGI [12] was greater than 100 µM and the TGI [13] was greater than 100 µM.

`COc1ccc(C(=O)/C=C/c2ccc(OCC#N)cc2)cc1OC` gave a TGI [1] of 44.3 µM, a TGI [2] greater than 100 µM and a TGI [3] of 33.8 µM. For the same compound, the TGI [4] was 85.3 µM, the TGI [5] was 61.2 µM and the TGI [6] was 28.8 µM. It also gave a TGI [7] of 36.4 µM, a TGI [8] of 70 µM and a TGI [9] of 76.1 µM. It also gave a TGI [10] of 54.5 µM, a TGI [11] of 37.5 µM and a TGI [15] of 33.3 µM. The TGI [12] was greater than 100 µM and the TGI [13] was 44.7 µM.

`NC(CCC(=O)NC(CSC(=O)N(O)c1ccc(Cl)cc1)C(=O)NCC(=O)O)C(=O)O` (configuration not stated) was tested, and the TGI [1] was greater than 0.5 µM, the TGI [2] was greater than 0.5 µM and the TGI [3] was greater than 0.5 µM. The TGI [4] was greater than 0.5 µM, the TGI [5] was greater than 0.5 µM and the TGI [7] was greater than 0.5 µM. It also gave a TGI [9] greater than 0.5 µM, a TGI [10] greater than 0.5 µM and a TGI [11] greater than 0.5 µM. It also gave a TGI [15] greater than 0.5 µM, a TGI [12] greater than 0.5 µM and a TGI [13] greater than 0.5 µM.

`O=C(OCC(Cl)(Cl)Cl)N1CC[C@@H](C2CCCCC2)C1` was tested, and the TGI [3] was 37.1 µM, the TGI [4] was 34.3 µM and the TGI [5] was 69.4 µM. For the same compound, the TGI [6] was greater than 100 µM, the TGI [7] was 38 µM and the TGI [8] was greater than 100 µM. For the same compound, the TGI [9] was 49.7 µM, the TGI [10] was 64.2 µM and the TGI [11] was 76.5 µM. For the same compound, the TGI [15] was 36.7 µM and the TGI [12] was greater than 100 µM.

In the case of `Cc1ccccc1C(=O)NC(O)(C(F)(F)F)C(F)(F)F`, the TGI [1] is reported as greater than 100 µM, the TGI [2] is reported as greater than 100 µM and the TGI [3] is reported as greater than 100 µM. For the same compound, the TGI [4] was greater than 100 µM, the TGI [6] was greater than 100 µM and the TGI [7] was greater than 100 µM. For the same compound, the TGI [8] was greater than 100 µM, the TGI [9] was greater than 100 µM and the TGI [10] was greater than 100 µM. The TGI [14] was greater than 100 µM, the TGI [11] was greater than 100 µM and the TGI [15] was greater than 100 µM. The TGI [12] was greater than 100 µM and the TGI [13] was greater than 100 µM.

`Cc1cc(CN(Cc2ccccc2)Cc2nc3ccccc3[nH]2)c(O)c(CN(Cc2nc3ccccc3[nH]2)Cc2nc3ccccc3[nH]2)c1` showed a TGI [1] of 14.7 µM, a TGI [2] greater than 100 µM and a TGI [3] of 64.1 µM. It also gave a TGI [4] greater than 100 µM, a TGI [5] greater than 25.3 µM and a TGI [6] greater than 69.5 µM. The TGI [7] was 35.3 µM, the TGI [8] was greater than 67.9 µM and the TGI [10] was greater than 79.5 µM. For the same compound, the TGI [11] was greater than 100 µM, the TGI [15] was 38 µM and the TGI [12] was greater than 52.3 µM. It also gave a TGI [13] of 36.1 µM.

`Nc1nc(NNc2ccccc2F)cc(=O)[nH]1` showed a TGI [2] greater than 100 µM, a TGI [5] greater than 100 µM and a TGI [7] greater than 100 µM. For the same compound, the TGI [8] was greater than 100 µM, the TGI [9] was greater than 100 µM and the TGI [14] was greater than 100 µM. For the same compound, the TGI [15] was greater than 100 µM and the TGI [13] was greater than 100 µM.

`COc1ccc(N2C(=O)C(C#N)=C(SC)C(C#N)C2=O)cc1` (configuration not stated) showed a TGI [1] greater than 100 µM, a TGI [2] of 89.8 µM and a TGI [3] greater than 100 µM. For the same compound, the TGI [4] was greater than 100 µM, the TGI [7] was greater than 100 µM and the TGI [8] was greater than 100 µM. The TGI [9] was greater than 100 µM, the TGI [11] was greater than 100 µM and the TGI [15] was greater than 100 µM. For the same compound, the TGI [12] was greater than 100 µM and the TGI [13] was greater than 100 µM.

In the case of `CC1=C(S(=O)c2ccc(C)cc2)CCC2(CCCCO2)O1` (configuration not stated), the TGI [2] is reported as greater than 100 µM, the TGI [3] is reported as greater than 100 µM and the TGI [4] is reported as greater than 100 µM. For the same compound, the TGI [6] was greater than 100 µM, the TGI [7] was greater than 100 µM and the TGI [8] was greater than 100 µM. For the same compound, the TGI [9] was greater than 100 µM, the TGI [10] was greater than 100 µM and the TGI [14] was greater than 100 µM. The TGI [11] was greater than 100 µM, the TGI [15] was greater than 100 µM and the TGI [13] was greater than 100 µM.

Compound `CN(C)C=NCc1ccc2c(c1)OCO2` has a TGI [1] greater than 100 µM, a TGI [2] greater than 100 µM and a TGI [3] greater than 100 µM. It also gave a TGI [4] greater than 100 µM, a TGI [5] greater than 100 µM and a TGI [6] greater than 100 µM. It also gave a TGI [7] greater than 100 µM, a TGI [8] greater than 100 µM and a TGI [9] greater than 100 µM. For the same compound, the TGI [10] was greater than 100 µM, the TGI [11] was greater than 100 µM and the TGI [15] was greater than 100 µM. It also gave a TGI [12] greater than 100 µM and a TGI [13] greater than 100 µM.

`O=C1CCCC(=O)N1n1c(Cc2ccc(Cl)cc2)n[nH]c1=O` was tested, and the TGI [2] was greater than 100 µM, the TGI [3] was greater than 100 µM and the TGI [4] was greater than 100 µM. It also gave a TGI [6] greater than 100 µM, a TGI [7] greater than 100 µM and a TGI [8] greater than 100 µM. For the same compound, the TGI [9] was greater than 100 µM, the TGI [10] was greater than 100 µM and the TGI [14] was greater than 100 µM. The TGI [11] was greater than 100 µM, the TGI [15] was greater than 100 µM and the TGI [12] was greater than 100 µM. For the same compound, the TGI [13] was greater than 100 µM.

Compound `CC(=O)N1N=C(c2ccc3ccccc3c2O)CC1c1ccc(Cl)cc1Cl` (configuration not stated) has a TGI [1] greater than 100 µM, a TGI [2] greater than 100 µM and a TGI [3] greater than 100 µM. It also gave a TGI [4] of 93.1 µM, a TGI [5] greater than 100 µM and a TGI [6] greater than 100 µM. For the same compound, the TGI [7] was greater than 100 µM, the TGI [8] was greater than 100 µM and the TGI [9] was greater than 100 µM. The TGI [10] was greater than 100 µM, the TGI [11] was greater than 100 µM and the TGI [15] was greater than 100 µM. It also gave a TGI [12] greater than 100 µM and a TGI [13] greater than 100 µM.

With `CCOC(=O)C1=COC(C)(C)CC1=O` the TGI [2] was greater than 100 µM, the TGI [3] was greater than 100 µM and the TGI [4] was greater than 100 µM. It also gave a TGI [6] greater than 100 µM, a TGI [7] greater than 100 µM and a TGI [8] greater than 100 µM. The TGI [9] was greater than 100 µM, the TGI [10] was greater than 100 µM and the TGI [11] was greater than 100 µM. It also gave a TGI [12] greater than 100 µM and a TGI [13] greater than 100 µM.

Source: PubChem BioAssay (NCI)
